Values of other authors, collected in patent US20140140997A1, “Methods of Treating Retroviral Infections in Felines” (CytoDyn Inc., priority 2011, published 2014).

How the values were obtained:
[1] = test system: CD11a binding to ICAM-1; details: Weitz-Schmidt et al. 2004; Welzenbach et al. 2002
[2] = test system: LFA-1; details: Wang et al. 2009; Almog 2003

Row | Structure (SMILES) | prevention of CD11a binding to ICAM-1 [1] | inhibition of LFA-1 activation [2]
1 | CC[C@H](C)C(=O)O[C@H]1C[C@@H](C)C=C2C=C[C@H](C)[C@H](CC[C@@H]3C[C@H](CC(=O)NC)N(Cc4ccc(O)c(OC)c4)C(=O)O3)[C@H]21 [LFA878] | preventing the ability of CD11a to bind to ICAM-1 | 
2 | O=C(NCc1cccc(O)c1)c1cc(Cl)c(C(=O)N[C@@H](CNC(=O)c2cc(O)cc(O)c2)C(=O)O)c(Cl)c1 [XVA143] | preventing the ability of CD11a to bind to ICAM-1 | 
3 | CCC(C)(C)C(=O)O[C@H]1C[C@@H](C)C=C2C=C[C@H](C)[C@H](CC[C@@H]3C[C@@H](O)CC(=O)O3)[C@H]21 [simvastatin, (1S,3R,7S,8S,8aR)-8-(2-((2R,4R)-4-hydroxy-6-oxotetrahydro-2H-pyran-2-yl)ethyl)-3,7-dimethyl-1,2,3,7,8,8a-hexahydronaphthalen-1-yl 2,2-dimethylbutanoate] |  | inhibit LFA-1 activation
4 | CC[C@H](C)C(=O)O[C@H]1C[C@@H](C)C=C2C=C[C@H](C)[C@H](CC[C@@H]3C[C@@H](O)CC(=O)O3)[C@H]21 [Lovastatin, (1S,3R,7S,8S,8aR)-8-{2-[(2R,4R)-4-hydroxy-6-oxooxan-2-yl]ethyl}-3,7-dimethyl-1,2,3,7,8,8a-hexahydronaphthalen-1-yl (2S)-2-methylbutanoate] |  | inhibit LFA-1 activation
